From patent US10611750B2, “Tetrahydroquinoline compositions as bet bromodomain inhibitors” (FORMA Therapeutics, Inc., priority 2013, dated 2020)

Key:
[1] = biological target: T1, BRD4 Bromodomain 1 (BRD4 BD1) (Homo sapiens, UniProt O60885); test: AlphaScreen binding assay, BRD4 BD1; settings: His-tagged BRD4 BD1 50 nM, biotinylated H4 (1-21) K5/8/12/16 tetra-acetylated peptide 50 nM, compounds listed under IC50 range headings
T1 construct: 44-168 and BRD4 BD2
Outline: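 Compound dilution series were mixed with His-tagged BRD4 bromodomain and biotinylated tetra-acetylated H4 (1-21) peptide at pH 7.3 (BD1 and peptide at 50 nM, BD2 and peptide at 100 nM). Donor and acceptor beads were then added, and plates were equilibrated at least 1 h before reading. IC50 values were fitted with a four-parameter logistic model.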

[2] = test system: acute myelocytic leukemia (AML) cell line MV4-11; test: Oncology cell growth assay (3-day proliferation, CellTiter-Glo); format: cell-based; settings: Homo sapiens, MV4-11, 72 h, MV4-11 cells, 3000 cells/well, compounds listed under IC50 range headings, read-out: MV411 IC50 (gIC50, inhibition of proliferation)
Outline: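 72 h, 37° C, 5% CO2; MV4-11, 3000 cells/well, RPMI 1640 + 10% FBS. Compound final 10, 3.3, 1.1, 0.37, 0.12, 0.041, 0.013, 0.0045 μM. Readout CellTiter-Glo luminescence; gIC50 by 4-parameter logistic fit, normalised to DMSO and no-cell background.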

## C[C@H]1CCc2c(ccc(-c3cnoc3)c2Oc2ccccc2)N1C(=O)C1CC1 [I-231, (S)-cyclopropyl(6-(isoxazol-4-yl)-2-methyl-5-phenoxy-3,4-dihydroquinolin-1 (2H)-yl)methanone]
[1]
  IC50: 1000 to 10000 nM
[2]
  IC50: < 500 nM

## COC(=O)N1c2ccc(-c3cn(C)nn3)c(Oc3ccccc3)c2CC[C@@H]1C [I-232, (S)-methyl 2-methyl-6-(1-methyl-1H-1,2,3-triazol-4-yl)-5-phenoxy-3,4-dihydroquinoline-1(2H)-carboxylate]
[1]
  IC50: 100 to 1000 nM
[2]
  IC50: < 500 nM

## CC(=O)N1c2ccc(-c3cn(C)nn3)c(Oc3ccccc3)c2CC[C@@H]1C [I-233, (S)-1-(2-methyl-6-(1-methyl-1H-1,2,3-triazol-4-yl)-5-phenoxy-3,4-dihydroquinolin-1(2H)-yl)ethanone]
[1]
  IC50: 100 to 1000 nM
[2]
  IC50: < 500 nM

## COc1cccc(Oc2c(-c3cn(C)nn3)ccc3c2CC[C@H](C)N3C(=O)C2CC2)c1 [I-234, (S)-cyclopropyl(5-(3-methoxyphenoxy)-2-methyl-6-(1-methyl-1H-1,2,3-triazol-4-yl)-3,4-dihydroquinolin-1 (2H)-yl)methanone]
[1]
  IC50: 1000 to 10000 nM
[2]
  IC50: < 500 nM

## C[C@H]1CCc2c(ccc(-c3cn(C)nn3)c2Oc2cccc(F)c2)N1C(=O)C1CC1 [I-235, (S)-cyclopropyl(5-(3-fluorophenoxy)-2-methyl-6-(1-methyl-1H-1,2,3-triazol-4-yl)-3,4-dihydroquinolin-1 (2H)-yl)methanone]
[1]
  IC50: 1000 to 10000 nM
[2]
  IC50: < 500 nM

## C[C@H]1CCc2c(ccc(-c3cn(C)nn3)c2Oc2ccc(F)cc2)N1C(=O)C1CC1 [I-236, (S)-cyclopropyl(5-(4-fluorophenoxy)-2-methyl-6-(1-methyl-1H-1,2,3-triazol-4-yl)-3,4-dihydroquinolin-1 (2H)-yl)methanone]
[1]
  IC50: 100 to 1000 nM
[2]
  IC50: < 500 nM

## C[C@H]1CCc2c(Oc3ccccc3)c(-c3cn[nH]c3)cc(F)c2N1C(=O)C1CC1 [I-238, (S)-cyclopropyl(8-fluoro-2-methyl-5-phenoxy-6-(1H-pyrazol-4-yl)-3,4-dihydroquinolin-1(2H)-yl)methanone]
[1]
  IC50: 1000 to 10000 nM
[2]
  IC50: < 500 nM

## COC(=O)N1c2c(F)cc(-c3cnn(C4CC4)c3)c(Oc3ccccc3)c2CC[C@@H]1C [I-239, (S)-methyl 6-(1-cyclopropyl-1H-pyrazol-4-yl)-8-fluoro-2-methyl-5-phenoxy-3,4-dihydroquinoline-1(2H)-carboxylate]
[1]
  IC50: 1000 to 10000 nM
[2]
  IC50: < 500 nM

## COC(=O)N1c2c(F)cc(-c3cn[nH]c3)c(Oc3ccccc3)c2CC[C@@H]1C [I-240, (S)-methyl 8-fluoro-2-methyl-5-phenoxy-6-(1H-pyrazol-4-yl)-3,4-dihydroquinoline-1(2H)-carboxylate]
[1]
  IC50: 100 to 1000 nM
[2]
  IC50: < 500 nM

## CC(=O)N1c2c(F)cc(-c3cnn(C4CC4)c3)c(Oc3ccccc3)c2CC[C@@H]1C [I-241, (S)-1-(6-(1-cyclopropyl-1H-pyrazol-4-yl)-8-fluoro-2-methyl-5-phenoxy-3,4-dihydroquinolin-1(2H)-yl)ethanone]
[1]
  IC50: 100 to 1000 nM
[2]
  IC50: < 500 nM

## CC(=O)N1c2c(F)cc(-c3cn[nH]c3)c(Oc3ccccc3)c2CC[C@@H]1C [I-242, (S)-1-(8-fluoro-2-methyl-5-phenoxy-6-(1H-pyrazol-4-yl)-3,4-dihydroquinolin-1(2H)-yl)ethanone]
[1]
  IC50: 100 to 1000 nM
[2]
  IC50: < 500 nM

## C[C@H]1CCc2c(ccc(C3CC3)c2Oc2ccccc2)N1C(=O)C1CC1 [I-243, (S)-cyclopropyl(6-cyclopropyl-2-methyl-5-phenoxy-3,4-dihydroquinolin-1 (2H)-yl) methanone]
[1]
  IC50: 100 to 1000 nM
[2]
  IC50: < 500 nM

## COC(=O)N1c2ccc(C3CC3)c(Oc3ccccc3)c2CC[C@@H]1C [I-244, (S)-methyl 6-cyclopropyl-2-methyl-5-phenoxy-3,4-dihydroquinoline-1(2H)-carboxylate]
[1]
  IC50: ≥ 10000 nM
[2]
  IC50: > 1000 nM

## COC(=O)N1c2ccc(-c3cnn(C4CC5CN(C)CC5C4)c3)c(OC3CCC3)c2CC[C@@H]1C (stereo partly drawn) [I-248, (2S)-methyl 5-cyclobutoxy-2-methyl-6-(1-(2-methyl-octahydrocyclopenta[c]pyrrol-5-yl)-1H-pyrazol-4-yl)-3,4-dihydroquinoline-1(2H)-carboxylate]
[1]
  IC50: 100 to 1000 nM
[2]
  IC50: < 500 nM

## COC(=O)N1c2ccc(-c3cnn(C4CC5CN(C)CC5C4)c3)c(Oc3ccc(F)cc3)c2CC[C@@H]1C (stereo partly drawn) [I-250, (2S)-methyl 5-(4-fluorophenoxy)-2-methyl-6-(1-(2-methyl-octahydrocyclopenta[c]pyrrol-5-yl)-1H-pyrazol-4-yl)-3,4-dihydroquinoline-1(2H)-carboxylate]
[1]
  IC50: 100 to 1000 nM
[2]
  IC50: < 500 nM

## C[C@H]1CCc2c(ccc(-c3cnn(C4CCNCC4)c3)c2Oc2ccccc2F)N1C(=O)C1CC1 [I-260, (S)-cyclopropyl(5-(2-fluorophenoxy)-2-methyl-6-(1-(piperidin-4-yl)-1H-pyrazol-4-yl)-3,4-dihydroquinolin-1(2H)-yl)methanone]
[1]
  IC50: 100 to 1000 nM
[2]
  IC50: < 500 nM

## COC(=O)N1c2ccc(-c3cnn(C4CNC4)c3)c(Oc3ccccc3F)c2CC[C@@H]1C [I-261, (S)-methyl 6-(1-(azetidin-3-yl)-1H-pyrazol-4-yl)-5-(2-fluorophenoxy)-2-methyl-3,4-dihydroquinoline-1(2H)-carboxylate]
[1]
  IC50: 100 to 1000 nM
[2]
  IC50: < 500 nM

## C[C@H]1CCc2c(ccc(-c3cnn(C4CCNCC4)c3)c2Oc2ccc(F)cc2F)N1C(=O)C1CC1 [I-264, (S)-cyclopropyl (5-(2,4-difluorophenoxy)-2-methyl-6-(1-(piperidin-4-yl)-1H-pyrazol-4-yl)-3,4-dihydroquinolin-1 (2H)-yl)methanone]
[1]
  IC50: 100 to 1000 nM
[2]
  IC50: < 500 nM

## C[C@H]1CCc2c(ccc(-c3cnn(C4CNC4)c3)c2Oc2ccc(F)cc2F)N1C(=O)C1CC1 [I-265, (S)-(6-(1-(azetidin-3-yl)-1H-pyrazol-4-yl)-5-(2,4-difluorophenoxy)-2-methyl-3,4-dihydroquinolin-1(2H)-yl)(cyclopropyl)methanone]
[1]
  IC50: 100 to 1000 nM
[2]
  IC50: < 500 nM

## COC(=O)N1c2ccc(-c3cnn(C4CNC4)c3)c(Oc3ccc(F)cc3F)c2CC[C@@H]1C [I-266, (S)-methyl 6-(1-(azetidin-3-yl)-1H-pyrazol-4-yl)-5-(2,4-difluorophenoxy)-2-methyl-3,4-dihydroquinoline-1(2H)-carboxylate]
[1]
  IC50: 100 to 1000 nM
[2]
  IC50: < 500 nM

## C[C@H]1CCc2c(ccc(-c3cnn(C4CCNCC4)c3)c2Oc2cccc(F)c2F)N1C(=O)C1CC1 [I-267, (S)-cyclopropyl(5-(2,3-difluorophenoxy)-2-methyl-6-(1-(piperidin-4-yl)-1H-pyrazol-4-yl)-3,4-dihydroquinolin-1(2H)-yl)methanone]
[1]
  IC50: 100 to 1000 nM
[2]
  IC50: < 500 nM

## COC(=O)N1c2ccc(-c3cnn(C4CCNCC4)c3)c(Oc3cccc(F)c3F)c2CC[C@@H]1C [I-269, (S)-methyl 5-(2,3-difluorophenoxy)-2-methyl-6-(1-(piperidin-4-yl)-1H-pyrazol-4-yl)-3,4-dihydroquinoline-1(2H)-carboxylate]
[1]
  IC50: 100 to 1000 nM
[2]
  IC50: < 500 nM

## COC(=O)N1c2ccc(-c3cnn(C4CNC4)c3)c(Oc3cc(F)ccc3F)c2CC[C@@H]1C [I-271, (S)-methyl 6-(1-(azetidin-3-yl)-1H-pyrazol-4-yl)-5-(2,5-difluorophenoxy)-2-methyl-3,4-dihydroquinoline-1(2H)-carboxylate]
[1]
  IC50: 100 to 1000 nM
[2]
  IC50: < 500 nM

## C[C@H]1CCc2c(ccc(-c3cnn(C4CNC4)c3)c2Oc2cc(F)ccc2F)N1C(=O)C1CC1 [I-272, (S)-(6-(1-(azetidin-3-yl)-1H-pyrazol-4-yl)-5-(2,5-difluorophenoxy)-2-methyl-3,4-dihydroquinolin-1(2H)-yl)(cyclopropyl)methanone]
[1]
  IC50: 100 to 1000 nM
[2]
  IC50: < 500 nM

## COC(=O)N1c2ccc(-c3cnn(C4CCNCC4)c3)c(Oc3cc(F)ccc3F)c2CC[C@@H]1C [I-273, (S)-methyl 5-(2,5-difluorophenoxy)-2-methyl-6-(1-(piperidin-4-yl)-1H-pyrazol-4-yl)-3,4-dihydroquinoline-1(2H)-carboxylate]
[1]
  IC50: 100 to 1000 nM
[2]
  IC50: < 500 nM

## C[C@H]1CCc2c(ccc(-c3cnn(C4CCNCC4)c3)c2Oc2cc(F)ccc2F)N1C(=O)C1CC1 [I-274, (S)-cyclopropyl(5-(2,5-difluorophenoxy)-2-methyl-6-(1-(piperidin-4-yl)-1H-pyrazol-4-yl)-3,4-dihydroquinolin-1 (2H)-yl)methanone]
[1]
  IC50: 100 to 1000 nM
[2]
  IC50: < 500 nM

## CC(=O)N1c2ccc(-c3cnn(C4CCNCC4)c3)c(Oc3ccc(F)c(F)c3)c2CC[C@@H]1C [I-275, (S)-1-(5-(3,4-difluorophenoxy)-2-methyl-6-(1-(piperidin-4-yl)-1H-pyrazol-4-yl)-3,4-dihydroquinolin-1 (2H)-yl)ethanone]
[1]
  IC50: 100 to 1000 nM
[2]
  IC50: < 500 nM

## CC(=O)N1c2ccc(-c3cnn(C4CCNCC4)c3)c(Oc3cc(F)ccc3F)c2CC[C@@H]1C [I-276, (S)-1-(5-(2,5-difluorophenoxy)-2-methyl-6-(1-(piperidin-4-yl)-1H-pyrazol-4-yl)-3,4-dihydroquinolin-1(2H)-yl)ethanone]
[1]
  IC50: 100 to 1000 nM
[2]
  IC50: < 500 nM

## C[C@H]1CCc2c(ccc(-c3cnn4c3NCC4)c2OC2CCC2)N1C(=O)C1CC1 [I-278, ((2S)-5-cyclobutoxy-6-(2,3-dihydro-1H-pyrazolo[1,5-a]imidazol-7-yl)-2-methyl-3,4-dihydroquinolin-1(2H)-yl)(cyclopropyl)methanone]
[1]
  IC50: 100 to 1000 nM
[2]
  IC50: < 500 nM
